Experimental data taken from publication PMC8126654, “Novel Pan-Pim Kinase Inhibitors With Imidazopyridazine and Thiazolidinedione Structure Exert Potent Antitumor Activities” (Frontiers in Pharmacology, 2021).

Legend:
cancer cell lines = assay: Cytotoxicity assay for cell survival (cancer cell proliferation); assay type: cell-based; settings: 96 hours; read-out: IC50 for proliferation of a broad spectrum of cancer cell lines (range)
From the text: We obtained colon cancer HCT116 and HT-29 cells, prostate cancer PC-3, DU145, and LNCaP cells, lung cancer NCI-H460 and NCI-H522 cells, breast cancer MDA-MB-231 cells, AML MV-4-11 cells, and chronic myeloid leukemia (CML) K-562, MEG-01, and KU812 cells from American Type Culture Collection (Manassas, VA, United States); stomach cancer MKN45 cells from the Health Science Research Resources Bank (Osaka, Japan); pancreatic cancer AsPC-1 and MIA PaCa-2, and lung cancer A549 cells from DS Pharma Biomedical (Osaka, Japan). All cell lines were cultured in RPMI1640 medium (Life Technologies; Thermo Fisher Scientific Inc.) with 10% (v/v) fetal bovine serum (FBS; Sigma-Aldrich; Merck KgaA) at 37°C in 5% CO2.
Cells were seeded in 96-well plates and test compounds were added to the cultures at several concentrations.

HCT116 = assay: Apoptosis assay in HCT116 (Hoechst 33342 nuclear morphology, Cell Death ELISA); assay type: cell-based
Description: For caspase-3/7 activity assay, the Caspase-Glo 3/7 Assay System (Promega, Madison, WI) was used according to the manufacturer’s protocol. […] The Caspase-Glo 3/7 reagent was then added to each well and incubated for 1 h, and caspase-3/7 activity was measured. […] After treatment, cells were stained in 0.5 μg/ml Hoechst 33342 for 30 min. Subsequently, cell morphology was observed and images were captured from random visual fields using fluorescence microscopy (Biozero BZ-8100, Keyence, Osaka, Japan). […] After treatment, DNA fragmentation was detected using the Cell Death Detection ELISA^PLUS (Roche Applied Science, Mannheim, Germany).

For CN1CCN(c2ccc(-c3cnc4ccc(/C=C5\SC(=O)NC5=O)nn34)cc2)CC1 [YPC-21440, (Z)-5-([3-{4-(4-methylpiperazin-1-yl)phenyl}imidazo[1,2-b]pyridazin-6-yl]methylene)thiazolidine-2,4-dione], the IC50 (cancer cell lines) was 27 to 1000 nM, the Chromatin condensation (HCT116; HCT116, 1 µM, 48 h) was “induced” and the DNA fragmentation (HCT116; HCT116, ≥ 0.3 µM, 24 h) was “induced”.
